According to patent US20080194585A1, “Fungicidal Pyrazine Derivatives” (priority 2005, published 2008):
Marks after values point to notes of the source that are not given here.

Legend:
Conditions in all cases: 100 = 100% disease control, 0 = no control
[1] = tested on: Plasmopara viticola; test: Test D: grape downy mildew, spray after inoculation of grape seedlings; assay type: in vivo
Source text: Upon removal, disease ratings were made. […] A dash (-) indicates no test results.

[2] = tested on: Phytophthora infestans; test: whole plant or invertebrate; assay type: in vivo
[3] = tested on: Septoria tritici; test: Test J: wheat leaf blotch, preventive spray on wheat seedlings; assay type: in vivo
Source text: A dash (-) indicates no test results.

[4] = tested on: fusarium graminearium; test: Test I: wheat head scab, preventive spray on wheat seedlings
Procedure: (the causal agent of wheat head scab) and incubated in a saturated atmosphere at 20° C. for 72 h, and then moved to a growth chamber at 22° C. for 5 days, after which disease ratings were made.

[5] = tested on: Puccinia recondita f. sp. tritici; test: Test K: wheat leaf rust, preventive spray on wheat seedlings
[6] = tested on: Botrytis cinerea; test: Test E: tomato botrytis, preventive spray on tomato seedlings
[7] = tested on: Septoria nodorum; test: Test H: wheat glum blotch, preventive spray on wheat seedlings
Procedure: (the causal agent of wheat glum blotch) and incubated in a saturated atmosphere at 20° C. for 48 h, and then moved to a growth chamber at 22° C. for 5 days, after which disease ratings were made.

[8] = tested on: Erysiphe graminis f. sp. tritici; test: Test L: wheat powdery mildew, preventive spray on wheat seedlings
[9] = tested on: Sclerotinia sclerotiorum; test: Test C: cucumber white mold, preventive spray on cucumber seedlings
[10] = tested on: Pythium aphanidermatum; test: Test A: bluegrass pythium blight, preventive spray on bluegrass seedlings
[11] = tested on: Rhizoctonia oryzae; test: Test G: turf brown patch, preventive spray on creeping bent grass seedlings
Procedure: (the causal agent of turf brown patch) and incubated in a saturated atmosphere at 27° C. for 24 h, and then moved to a growth chamber at 27° C. for 5 days, after which disease ratings were made.

[12] = tested on: Colletotrichum orbiculare; test: Test B: cucumber Colletotrichum anthracnose, preventive spray on cucumber seedlings

Structure (SMILES)	Test D disease control rating ([1]; 200 ppm)	Test F disease control rating ([2]; 200 ppm)	Test I disease control rating ([4]; 200 ppm)	Test K disease control rating ([5]; 200 ppm)	Test E disease control rating ([6]; 200 ppm)	Test H disease control rating ([7]; 200 ppm)	Test L disease control rating ([8]; 200 ppm)	Test C disease control rating ([9]; 200 ppm)	Test A disease control rating ([10]; 200 ppm)	Test G disease control rating ([11]; 200 ppm)	Test B disease control rating ([12]; 200 ppm)	Test J disease control rating ([3]; 200 ppm)	other results
CCCCn1c(-c2ccc(F)cc2Cl)c(Br)nc(-n2ccc(C)n2)c1=O [compound 285]													Test D disease control rating ([1]; 40 ppm (marked *)): 0* %; Test F disease control rating ([2]; 40 ppm (marked *)): 0* %; Test J disease control rating ([3]; 40 ppm (marked *)): 100* %; Test I disease control rating ([4]; 40 ppm (marked *)): 0* %; Test K disease control rating ([5]; 40 ppm (marked *)): 89* %; Test E disease control rating ([6]; 40 ppm (marked *)): 99* %; Test H disease control rating ([7]; 40 ppm (marked *)): 85* %; Test L disease control rating ([8]; 40 ppm (marked *)): 92* %; Test C disease control rating ([9]; 40 ppm (marked *)): 0* %; Test A disease control rating ([10]; 40 ppm (marked *)): 0* %; Test G disease control rating ([11]; 40 ppm (marked *)): 0* %; Test B disease control rating ([12]; 40 ppm (marked *)): 0* %
O=c1c(-n2cccn2)nc(Cl)c(-c2ccccc2Cl)n1Cc1ccccc1 [compound 288]	0%	0%	0%	91%	100%	100%	91%	0%	0%	0%	91%		Test J disease control rating ([3]; 40 ppm (marked *)): 100* %
Cc1ccn(-c2nc(Cl)c(C(C)C)n(CC(C)C)c2=O)n1 [compound 289]	0%	57%	0%	100%	100%	0%	79%	0%	0%	95%	0%	96%	
CC(C)Cn1c(C2CCCC2)c(Cl)nc(-n2cccn2)c1=O [compound 290]	0%	0%	0%	100%	100%	0%	99%	0%	0%	77%	0%	100%	
CC(C)Cn1c(C2CCCCC2)c(Cl)nc(-n2cccn2)c1=O [compound 291]	33%	0%	0%	88%	97%	0%	71%	0%	0%	0%	0%	100%	
CC(C)Cc1c(Cl)nc(-n2cccn2)c(=O)n1CC(C)C [compound 292]	0%	0%	0%	27%	0%	0%	74%	0%	0%	0%	0%	38%	
Cc1ccn(-c2nc(Cl)c(C3CCCC3)n(CC(C)C)c2=O)n1 [compound 293]	0%	0%	0%	88%	95%	0%	0%	0%	0%	0%	0%	97%	
Cc1ccn(-c2nc(Cl)c(C3CCCCC3)n(CC(C)C)c2=O)n1 [compound 294]	0%	0%	0%	54%	31%	0%	0%	0%	0%	0%	0%	95%	
Cc1ccn(-c2nc(Cl)c(CC(C)C)n(CC(C)C)c2=O)n1 [compound 295]	0%	0%	0%	27%	0%	0%	0%	0%	0%	0%	0%	53%	
CCC(C)Cn1c(-c2c(F)cccc2F)c(Cl)nc(C(=O)NC(C)C)c1=O (stereo not drawn) [compound 296]	53%	0%	0%	100%	100%	100%	93%	85%	0%	0%	93%	100%	
CCC(C)Cn1c(-c2c(F)cccc2F)c(Cl)nc(C(=O)NCC2CC2)c1=O (stereo not drawn) [compound 300]	40%	0%	0%	100%	100%	99%	97%	0%	0%	16%	93%	100%	
CCC(C)CNC(=O)c1nc(Cl)c(-c2c(F)cccc2F)n(CC(C)CC)c1=O (stereo not drawn) [compound 301]	0%	0%	0%	99%	100%	87%	68%	0%	0%	0%	0%	98%	
